Data published in US8168792B2, “Heterocyclic antiviral compounds” (Roche Palo Alto LLC, priority 2009, dated 2012).

Key:
[1] = biological target: T1, HCV polymerase (NS5B570n-Con1) (Hepatitis C virus genotype 1b, UniProt Q9WMX2); experiment: HCV NS5B RNA polymerase activity (incorporation of radiolabeled nucleotide into RNA); assay type: biochemical, HCV Con1 strain
T1 construct: contains a 21 amino acid deletion at the C-terminus relative to the full-length HCV polymerase; 6-histidine (N); made in house; host or cells: E. coli BL21(DE) pLysS, plasmid pET17b
Method: The enzymatic activity of HCV polymerase (NS5B570n-Con1) was measured as the incorporation of radiolabeled nucleotide monophosphates into acid insoluble RNA products. Unincorporated radio labeled substrate was removed by filtration and scintillant was added to the washed and dried filter plate containing radio labeled RNA product. The amount of RNA product generated by NS5B570-Con1 at the end of the reaction was directly proportional to the amount of light emitted by the scintillant.
The N-terminal 6-histidine tagged HCV polymerase, derived from HCV Con1 strain, genotype 1b (NS5B570n-Con1) contains a 21 amino acid deletion at the C-terminus relative to the full-length HCV polymerase and was purified from E. coli strain BL21(DE) pLysS. The construct, containing the coding sequence of HCV NS5B Con1 (GenBank accession number AJ242654) was inserted into the plasmid construct pET17b, downstream of a T7 promoter expression cassette and transformed into E. coli. A single colony was grown overnight as a starter culture and later used inoculate 10 L of LB media supplemented with 100 μg/mL ampicillin at 37° C. Protein expression was induced by the addition of 0.25 mM isopropyl-β-D-thiogalactopyranoside (IPTG) when optical density at […] of the culture was between 0.6 and 0.8 and cells were harvested after 16 to 18 h at 30° C. NS5B570n-Con1 was purified to homogeneity using a three-step protocol including subsequent column chromatography on Ni-NTA, SP-Sepharose HP and Superdex 75 resins.
Each 50 μl enzymatic reaction contained 20 nM RNA template derived from the complementary sequence of the Internal Ribosome Entry Site (cIRES), 20 nM NS5B570n-Con1 enzyme, 0.5 μCi of tritiated UTP (Perkin Elmer catalog no. TRK-412; specific activity: 30 to 60 Ci/mmol; stock solution concentration from 7.5×10^-5 M to 20.6×10^-6 M), 1 μM each ATP, CTP, and GTP, 40 mM Tris-HCl pH 8.0, 40 mM NaCl, 4 mM DTT (dithiothreitol), 4 mM MgCl2, and 5 μl of compound serial diluted in DMSO. Reaction mixtures were assembled in 96-well filter plates (cat #MADVN0B, Millipore Co.) and incubated for 2 h at 30° C. Reactions were stopped by addition of 10% final (v/v) trichloroacetic acid and incubated for 40 min at 4° C. Reactions were filtered, washed with 8 reaction volumes of 10% (v/v) trichloroacetic acetic acid, 4 reaction volumes of 70% (v/v) ethanol, air dried, and 25 μl of scintillant (Microscint 20, Perkin-Elmer) was added to each reaction well.
The amount of light emitted from the scintillant was converted to counts per minute (CPM) on a Topcount® plate reader (Perkin-Elmer, Energy Range: Low, Efficiency Mode Normal, Count Time: 1 min, Background Subtract: none, Cross talk reduction: Off).
Data was analyzed in Excel® (Microsoft) and ActivityBase® (Idbs®). The reaction in the absence of enzyme was used to determine the background signal, which was subtracted from the enzymatic reactions. Positive control reactions were performed in the absence of compound, from which the background corrected activity was set as 100% polymerase activity. All data was expressed as a percentage of the positive control. The compound concentration at which the enzyme-catalyzed rate of RNA synthesis was reduced by 50% (IC50) was calculated by fitting
[formula] equation (i) to the data where “Y” corresponds to the relative enzyme activity (in %), “% Min” is the residual relative activity at saturating compound concentration, “% Max” is the relative maximum enzymatic activity, “X” corresponds to the compound concentration, and “S” is the Hill coefficient (or slope).

in vitro = conditions: human
[2] = test system: HCV replicon (genotype 1b, cell line 2209-23); experiment: HCV replicon assay (Renilla luciferase reporter); assay type: cell-based, HCV genotype 1b; conditions: Hepatitis C virus, 72 h; three days incubation, luciferase readout
HCV = conditions: monotherapy / sole treatment; cited from earlier work

| SMILES | melting point [°C] | IC50 [1] [nM] | CC50 at 3 days (in vitro) [nM] | IC50 [2] [nM] | serum levels of HCV-RNA (HCV) |
| --- | --- | --- | --- | --- | --- |
| CC(C)(C)c1cc(-c2ccc[nH]c2=O)c2oc(=O)ccc2c1 [Compound I-1, 3-(6-tert-Butyl-2-oxo-2H-chromen-8-yl)-1H-pyridin-2-one] | > 300 | 1530 | – | – | – |
| CC(C)(C)c1cc(-c2ccc[nH]c2=O)c2[nH]c(=O)ccc2c1 [Compound I-2] | > 300 | 332 | – | – | – |
| CC(C)(C)c1cc(-c2ccc[nH]c2=O)c2oc(=O)c(-c3ccc(N)cc3)cc2c1 [Compound I-3] | > 300 | 34 | – | – | – |
| CC(C)(C)c1cc(-c2ccc[nH]c2=O)c2[nH]c(=O)c(-c3ccccc3)cc2c1 [Compound I-4] | 200 to 202 | 91 | – | – | – |
| CC(C)(C)c1cc(-c2ccc[nH]c2=O)c2oc(=O)c(-c3ccc(NS(C)(=O)=O)cc3)cc2c1 [Compound I-5, N-{4-[6-tert-Butyl-2-oxo-8-(2-oxo-1,2-dihydro-pyridin-3-yl)-2H-chromen-3-yl]-phenyl}-methanesulfonamide] | 225 to 227 | 5 | 95100 | 10 | – |
| Cn1c(=O)c(-c2ccccc2)cc2cc(C(C)(C)C)cc(-c3ccc[nH]c3=O)c21 [Compound I-6] | 290 to 292 | 456 | – | – | – |
| Cn1c(=O)c(-c2ccc(O)cc2)cc2cc(C(C)(C)C)cc(-c3ccc[nH]c3=O)c21 [Compound I-7] | > 300 | 900 | – | – | – |
| Cn1c(=O)c(-c2ccc(NS(C)(=O)=O)cc2)cc2cc(C(C)(C)C)cc(-c3ccc[nH]c3=O)c21 [Compound I-8, N-{4-[6-tert-Butyl-1-methyl-2-oxo-8-(2-oxo-1,2-dihydro-pyridin-3-yl)-1,2-dihydro-quinolin-3-yl]-phenyl}-methanesulfonamide] | > 300 | 6 | – | – | – |
| CC(C)(C)c1cc(-c2ccc[nH]c2=O)c2[nH]c(=O)c(-c3ccc(NS(C)(=O)=O)cc3)cc2c1 [Compound I-9] | > 300 | 5 | – | – | – |
| CC(C)(C)c1cc(-c2ccc[nH]c2=O)c2[nH]c(=O)c(-c3cccc(NS(C)(=O)=O)c3)cc2c1 [Compound I-10, N-{3-[6-tert-Butyl-2-oxo-8-(2-oxo-1,2-dihydro-pyridin-3-yl)-1,2-dihydro-quinolin-3-yl]-phenyl}-methanesulfonamide] | 233 to 235 | 531 | – | – | – |
| CC(C)(C)c1cc(-c2ccc[nH]c2=O)c2[nH]c(=O)c(-c3ccc(S(N)(=O)=O)cc3)cc2c1 [Compound I-11] | 250 to 252 | 46 | – | – | – |
| Cn1c(=O)c(-c2ccc(S(N)(=O)=O)cc2)cc2cc(C(C)(C)C)cc(-c3ccc[nH]c3=O)c21 [Compound I-12] | > 300 | 2370 | – | – | – |
| CC(C)(C)c1cc(-c2ccc[nH]c2=O)c2[nH]c(=O)c(-c3cccc(C(N)=O)c3)cc2c1 [Compound I-13] | 255 to 257 | 36 | – | – | – |
| CC(C)(C)c1cc(-c2ccc[nH]c2=O)c2c(=O)[nH]c(-c3ccc(NS(C)(=O)=O)cc3)cc2c1 [Compound I-14, N-{4-[6-tert-Butyl-1-oxo-8-(2-oxo-1,2-dihydro-pyridin-3-yl)-1,2-dihydro-isoquinolin-3-yl]-phenyl}-methanesulfonamide] | > 300 | 16 | – | – | – |
| CC(C)(C)c1cc(-c2ccc[nH]c2=O)c2c(=O)oc(-c3ccc(NS(C)(=O)=O)cc3)cc2c1 [Compound I-15, N-{4-[6-tert-Butyl-1-oxo-8-(2-oxo-1,2-dihydro-pyridin-3-yl)-1H-isochromen-3-yl]-phenyl}methanesulfonamide] | – | 8 | – | – | – |
| CC(C)(C)c1cc2c(c(-c3ccc[nH]c3=O)c1)OC(O)C(c1ccc(NS(C)(=O)=O)cc1)C2 (stereo not shown) [Compound I-18, N-{4-[6-tert-Butyl-2-hydroxy-8-(2-oxo-1,2-dihydro-pyridin-3-yl)-chroman-3-yl]-phenyl}-methanesulfonamide] | 228 to 230 | 7 | – | – | – |
| NC(=O)c1ncn([C@@H]2O[C@H](CO)[C@@H](O)[C@H]2O)n1 [ribavirin, 1-((2R,3R,4S,5R)-3,4-Dihydroxy-5-hydroxymethyl-tetrahydro-furan-2-yl)-1H-[1,2,4]triazole-3-carboxylic acid amide] | – | – | – | – | does not lower serum levels of HCV-RNA |
